Measured values taken from patent US20120040966A1, “ANTI-VIRAL COMPOUNDS, TREATMENT, AND ASSAY” (priority 2008, published 2012).

system: Madin Darby Canine Kidney (MDCK) cells; assay: cells; type: cell-based; settings: Canis lupus familiaris, MDCK, read-out: IC50 (toxicity)

Compound	IC50 [µM]
Cc1cccc(C2NC(=O)NC3=C2CCc2ccccc23)c1 (stereo not shown) [compound 22081]	> 50
Cc1ccc(C2NC(=O)NC3=C2CCc2ccccc23)cc1C (stereo not shown) [compound 22082]	> 50
Cc1ccc(-c2nc(=O)[nH]c3c2Cc2ccccc2-3)cc1 [compound 22084]	> 50
Oc1nc(-c2ccc3c(c2)OCO3)c2c(n1)-c1ccccc1CC2 [compound 22085]	> 50
O=C1NC2=C(CCc3ccccc32)C(c2cccnc2)N1 (stereo not shown) [compound 22086]	> 50
COc1cccc2c1CCc1c(-c3ccc(C)cc3)nc(O)nc1-2 [compound 22088]	> 50
Cc1ccc(-c2nc(O)nc3c2COc2ccccc2-3)cc1C [compound 22106]	> 50
COc1cccc(-c2nc(O)nc3c2COc2ccccc2-3)c1 [compound 22108]	> 50
Cc1cccc(-c2nc(O)nc3c2COc2ccccc2-3)c1 [compound 22110]	> 50
COc1cccc(C2NC(=O)NC3=C2CCc2c(OC)cccc23)c1 (stereo not shown) [compound 22111]	> 50
COc1cccc(-c2nc(O)nc3c2CCc2c(OC)cccc2-3)c1 [compound 22112]	> 50
COc1cccc2c1CCc1c(-c3ccc(C)c(C)c3)nc(O)nc1-2 [compound 22114]	> 50
COc1cc(C2NC(=O)NC3=C2CCc2ccccc23)cc(OC)c1OC (stereo not shown) [compound 22115]	> 50
COc1cc(-c2nc(O)nc3c2CCc2ccccc2-3)cc(OC)c1OC [compound 22116]	> 50
O=C1NC2=C(CCCc3ccccc32)C(c2ccc3c(c2)OCO3)N1 (stereo not shown) [compound 22117]	> 50
Oc1nc(-c2ccc3c(c2)OCO3)c2c(n1)-c1ccccc1CCC2 [compound 22118]	> 50

Compound	IC50 [µM]
Nc1nc(-c2ccc3c(c2)OCO3)c2c(n1)-c1ccccc1CC2 [compound 22120]	> 50
O=C1NC2=C(Cc3ccccc32)C(c2ccc3c(c2)OCO3)N1 (stereo not shown) [compound 22126]	> 50
COc1ccc(C2NC(=O)NC3=C2Cc2ccccc23)cc1 (stereo not shown) [compound 22127]	> 50
COc1ccc(-c2nc(O)nc3c2Cc2ccccc2-3)cc1 [compound 22128]	> 50
COc1ccc(C2NC(=O)NC3=C2COc2ccccc23)cc1 (stereo not shown) [compound 22129]	> 50
O=C1NC2=C(CCc3ccccc32)C(c2ccc(Cl)c(Cl)c2)N1 (stereo not shown) [compound 22130]	> 50
CC1CC2=C(NC(=O)NC2c2ccc3c(c2)OCO3)c2ccccc21 (stereo not shown) [compound 22342]	> 50
O=C1NC2=C(CCc3ccccc32)C(c2ccc3c(c2)OCCO3)N1 (stereo not shown) [compound 22343]	> 50
COc1ccc2c(c1)CCC1=C2NC(=O)NC1c1ccc2c(c1)OCO2 (stereo not shown) [compound 22344]	> 50
Cc1cccc(C2NC(=O)NC3=C2CCCc2ccccc23)c1 (stereo not shown) [compound 22345]	> 50
O=C1NC2=C(CCc3ccccc32)C(c2ccc3ccccc3c2)N1 (stereo not shown) [compound 22346]	> 50
Nc1cccc(C2NC(=O)NC3=C2CCc2ccccc23)c1 (stereo not shown) [compound 22348]	> 50
Nc1ccc(C2NC(=O)NC3=C2CCc2ccccc23)cc1 (stereo not shown) [compound 22350]	> 50
COc1nc(-c2ccc3c(c2)OCO3)c2c(n1)-c1ccccc1CC2 [compound 22402]	> 50
Cn1c2c(c(-c3ccc4c(c3)OCO4)nc1=O)CCc1ccccc1-2 [compound 22403]	> 50

system: influenza strain A/VN/1203/2004 (H5N1); assay: microbe, parasite or virus in culture; type: cell-based, Influenza A virus (H5N1); settings: Influenza A virus, H5N1, MDCK, 72 h, read-out: H5N1 EC50 (@ 50% Via)

Compound	EC50 [µM]
Cc1ccc(-c2nc(=O)[nH]c3c2Cc2ccccc2-3)cc1 [compound 22084]	> 50
O=C1NC2=C(CCc3ccccc32)C(c2cccnc2)N1 (stereo not shown) [compound 22086]	> 50
Cc1ccc(-c2nc(O)nc3c2COc2ccccc2-3)cc1C [compound 22106]	> 50
COc1cccc(-c2nc(O)nc3c2COc2ccccc2-3)c1 [compound 22108]	> 50
Cc1cccc(-c2nc(O)nc3c2COc2ccccc2-3)c1 [compound 22110]	10.4
COc1cccc(C2NC(=O)NC3=C2CCc2c(OC)cccc23)c1 (stereo not shown) [compound 22111]	> 50
COc1cccc(-c2nc(O)nc3c2CCc2c(OC)cccc2-3)c1 [compound 22112]	> 50
COc1cccc2c1CCc1c(-c3ccc(C)c(C)c3)nc(O)nc1-2 [compound 22114]	13.5
COc1cc(C2NC(=O)NC3=C2CCc2ccccc23)cc(OC)c1OC (stereo not shown) [compound 22115]	> 50
COc1cc(-c2nc(O)nc3c2CCc2ccccc2-3)cc(OC)c1OC [compound 22116]	> 50
O=C1NC2=C(CCCc3ccccc32)C(c2ccc3c(c2)OCO3)N1 (stereo not shown) [compound 22117]	4.8
Oc1nc(-c2ccc3c(c2)OCO3)c2c(n1)-c1ccccc1CCC2 [compound 22118]	> 50
Nc1nc(-c2ccc3c(c2)OCO3)c2c(n1)-c1ccccc1CC2 [compound 22120]	> 50
O=C1NC2=C(Cc3ccccc32)C(c2ccc3c(c2)OCO3)N1 (stereo not shown) [compound 22126]	> 50
COc1ccc(C2NC(=O)NC3=C2Cc2ccccc23)cc1 (stereo not shown) [compound 22127]	> 50
COc1ccc(-c2nc(O)nc3c2Cc2ccccc2-3)cc1 [compound 22128]	> 50
COc1ccc(C2NC(=O)NC3=C2COc2ccccc23)cc1 (stereo not shown) [compound 22129]	> 50
CC1CC2=C(NC(=O)NC2c2ccc3c(c2)OCO3)c2ccccc21 (stereo not shown) [compound 22342]	0.72
O=C1NC2=C(CCc3ccccc32)C(c2ccc3c(c2)OCCO3)N1 (stereo not shown) [compound 22343]	45.7
COc1ccc2c(c1)CCC1=C2NC(=O)NC1c1ccc2c(c1)OCO2 (stereo not shown) [compound 22344]	> 50
Cc1cccc(C2NC(=O)NC3=C2CCCc2ccccc23)c1 (stereo not shown) [compound 22345]	18.8
O=C1NC2=C(CCc3ccccc32)C(c2ccc3ccccc3c2)N1 (stereo not shown) [compound 22346]	≥ 55
Nc1cccc(C2NC(=O)NC3=C2CCc2ccccc23)c1 (stereo not shown) [compound 22348]	> 50
Nc1ccc(C2NC(=O)NC3=C2CCc2ccccc23)cc1 (stereo not shown) [compound 22350]	30.6
COc1nc(-c2ccc3c(c2)OCO3)c2c(n1)-c1ccccc1CC2 [compound 22402]	8.4
Cn1c2c(c(-c3ccc4c(c3)OCO4)nc1=O)CCc1ccccc1-2 [compound 22403]	5.2

same assay, conditions: Influenza A virus, H5N1, MDCK, 72 h, read-out: H5N1 EC50 (Inf Pt)

Compound	EC50 [µM]
Cc1cccc(C2NC(=O)NC3=C2CCc2ccccc23)c1 (stereo not shown) [compound 22081]	0.55
Cc1ccc(-c2nc(O)nc3c2COc2ccccc2-3)cc1C [compound 22106]	> 50
COc1cccc(-c2nc(O)nc3c2COc2ccccc2-3)c1 [compound 22108]	> 50
Cc1cccc(-c2nc(O)nc3c2COc2ccccc2-3)c1 [compound 22110]	8.6
COc1cccc(C2NC(=O)NC3=C2CCc2c(OC)cccc23)c1 (stereo not shown) [compound 22111]	> 50
COc1cccc(-c2nc(O)nc3c2CCc2c(OC)cccc2-3)c1 [compound 22112]	> 50
COc1cc(C2NC(=O)NC3=C2CCc2ccccc23)cc(OC)c1OC (stereo not shown) [compound 22115]	> 50
COc1cc(-c2nc(O)nc3c2CCc2ccccc2-3)cc(OC)c1OC [compound 22116]	> 50
O=C1NC2=C(CCCc3ccccc32)C(c2ccc3c(c2)OCO3)N1 (stereo not shown) [compound 22117]	2.9
Oc1nc(-c2ccc3c(c2)OCO3)c2c(n1)-c1ccccc1CCC2 [compound 22118]	> 50
Nc1nc(-c2ccc3c(c2)OCO3)c2c(n1)-c1ccccc1CC2 [compound 22120]	> 50
O=C1NC2=C(Cc3ccccc32)C(c2ccc3c(c2)OCO3)N1 (stereo not shown) [compound 22126]	> 50
COc1ccc(C2NC(=O)NC3=C2Cc2ccccc23)cc1 (stereo not shown) [compound 22127]	> 50
COc1ccc(-c2nc(O)nc3c2Cc2ccccc2-3)cc1 [compound 22128]	> 50
COc1ccc(C2NC(=O)NC3=C2COc2ccccc23)cc1 (stereo not shown) [compound 22129]	> 50
CC1CC2=C(NC(=O)NC2c2ccc3c(c2)OCO3)c2ccccc21 (stereo not shown) [compound 22342]	0.39
O=C1NC2=C(CCc3ccccc32)C(c2ccc3c(c2)OCCO3)N1 (stereo not shown) [compound 22343]	31.9
COc1ccc2c(c1)CCC1=C2NC(=O)NC1c1ccc2c(c1)OCO2 (stereo not shown) [compound 22344]	> 50
Cc1cccc(C2NC(=O)NC3=C2CCCc2ccccc23)c1 (stereo not shown) [compound 22345]	13.6
O=C1NC2=C(CCc3ccccc32)C(c2ccc3ccccc3c2)N1 (stereo not shown) [compound 22346]	> 50
Nc1cccc(C2NC(=O)NC3=C2CCc2ccccc23)c1 (stereo not shown) [compound 22348]	> 50
Nc1ccc(C2NC(=O)NC3=C2CCc2ccccc23)cc1 (stereo not shown) [compound 22350]	17.9
COc1nc(-c2ccc3c(c2)OCO3)c2c(n1)-c1ccccc1CC2 [compound 22402]	5.2
Cn1c2c(c(-c3ccc4c(c3)OCO4)nc1=O)CCc1ccccc1-2 [compound 22403]	1.7

same assay, conditions: read-out: H5N1 EC50 (@ 50% Via)

Compound	EC50 [µM]
Oc1nc(-c2ccc3c(c2)OCO3)c2c(n1)-c1ccccc1CC2 [compound 22085]	< 0.48
COc1cccc2c1CCc1c(-c3ccc(C)cc3)nc(O)nc1-2 [compound 22088]	15.4
COc1cccc2c1CCc1c(-c3ccc(C)c(C)c3)nc(O)nc1-2 [compound 22114]	9.1
O=C1NC2=C(CCCc3ccccc32)C(c2ccc3c(c2)OCO3)N1 (stereo not shown) [compound 22117]	6.8
COc1nc(-c2ccc3c(c2)OCO3)c2c(n1)-c1ccccc1CC2 [compound 22402]	14.5
Cn1c2c(c(-c3ccc4c(c3)OCO4)nc1=O)CCc1ccccc1-2 [compound 22403]	5.7

same assay, conditions: read-out: H5N1 EC50 (Inf Pt)

Compound	EC50 [µM]
Cc1cccc(C2NC(=O)NC3=C2CCc2ccccc23)c1 (stereo not shown) [compound 22081]	0.52
O=C1NC2=C(CCCc3ccccc32)C(c2ccc3c(c2)OCO3)N1 (stereo not shown) [compound 22117]	4
COc1nc(-c2ccc3c(c2)OCO3)c2c(n1)-c1ccccc1CC2 [compound 22402]	5.7
Cn1c2c(c(-c3ccc4c(c3)OCO4)nc1=O)CCc1ccccc1-2 [compound 22403]	2
